Test results from paper PMC2921341, “Interaction of Serum- and Glucocorticoid Regulated Kinase 1 (SGK1) with the WW-Domains of Nedd4-2 Is Required for Epithelial Sodium Channel Regulation” (PLoS ONE, 2010).

System: SGK
Assay: GST pulldown of SGK from COS7 lysate with WW-domain GST fusion proteins
Assay type: binding, human
Details: GST fusion on glutathione-Sepharose, COS7 lysate with SGK-FLAG or ΔN60SGK-HA, 3 h at 4°C, western blot, n = 7
Procedure: In order to better understand the molecular nature of the interaction between Nedd4-2 and SGK, in vitro GST pulldown studies were performed. […] Individual WW-domains of Nedd4-2 or Nedd4, or combinations of Nedd4-2 WW-domains, were expressed as GST fusion proteins and purified on glutathione-Sepharose beads. Lysates of COS7 cells expressing SGK or ΔN60-SGK (both SGK constructs gave the same results) were incubated with the WW-domain fusion proteins or GST alone. Bound SGK was detected by western blotting with anti-FLAG/HA.
pGEX-KG containing the cDNA of WW-domains of Nedd4 and Nedd4-2 or the empty vector were transformed into Escherichia coli strain BL21, and expression of the WW-domains-GST fusion protein or GST alone was induced with 0.5 µM isopropyl-D-1-thiogalactopyranoside for 3 h at 37°C. Bacteria were lysed using BugBuster (Novagen, Merck KGaA, Darmstadt, Germany), and the GST fusion proteins were purified on glutathione-Sepharose beads (GE Healthcare, Little Chalfont, Bucks, U.K.). COS7 cells were transiently transfected with pMT3 containing SGK/SGKS422D-FLAG or ΔN60SGK-HA. […] The glutathione-Sepharose beads, along with the fusion proteins and any binding proteins, were collected by centrifugation (1 min, 16,000 g), washed extensively in T-TBS and analyzed by SDS-PAGE and Western blotting using anti-FLAG antibody. Resulting X-ray films were analyzed densitometrically.

binding to SGK in GST pulldown (in words)	Substance
interact with SGK	Nedd4 WW1: WW-domain 1 of Nedd4, GST fusion (SPLPPGWEERQDILGRTYYVNHESRRTQWKRPTP; left off: GST, end not stated, kept)
interact with SGK	Nedd4 WW3: WW-domain 3 of Nedd4 (GFLPKGWEVRHAPNGRPFFIDHNTKTTTWEDPRL; left off: GST, end not stated, cleaved)
